Data reported in patent US8138118B2, “Use of hydroxyaromatics as safeners” (Bayer CropScience AG, priority 2003, dated 2012).

Assays:
Assay type in all cases: in vivo
[1] = tested on: Zea mays (corn), cv. 'Lorenzo'; assay: Pre-emergence application of herbicide and safener by the tank mix method, crop damage; settings: for Safener action as % damage reduction in crop plants: ZEAMA, safener 250 g a.i./ha + herbicide H1 100 g a.i./ha
Method: (§1) Seeds of various crop plants and weed species were sown in sandy loam soil in round plastic pots of a diameter of 13 cm and covered with a layer of sandy loam of a thickness of about 1 cm. Herbicides and safeners in the form of liquid (for example emulsion concentrates) or dry (for example water-dispersible powders) formulations were diluted with deionized water to the required concentration and applied to the surface of the soil with a spray bar using a water application rate of 300 liters per hectare. In the experiment shown below, the safeners were used as 20 percent strength water-dispersible powders and the herbicide isoxaflutole was used as an aqueous suspension concentrate (see table 1.1.1). The pots were placed in a greenhouse under favorable growth conditions. Visual scoring of the herbicidal action was carried out four weeks after the herbicide application. Evaluation was carried out on a percentage basis by comparison with untreated control plants (0%=no noticeable effect compared with the untreated plant, 100%=treated plant dies).

Chenopodium album = assay: Pre-emergence application of herbicide and safener by the tank mix method, herbicidal action on weed; settings: four weeks
Method: as §1

Setaria viridis [2] = assay: as above; settings: four weeks
Method: as §1

[3] = tested on: Zea mays (corn), cv. 'Lorenzo'; assay: Post-emergence application of herbicide and safener by the tank mix method, crop damage; settings: for Safener action as % damage reduction in crop plants: ZEAMA, safener 250 g a.i./ha + herbicide H2 40 g a.i./ha; for % damage in ZEAMA: four weeks
Description: (§2) Seeds of various crop plants and weed species were sown in sandy loam soil in round plastic pots of a diameter of 13 cm and covered with a layer of sandy loam of a thickness of about 1 cm. The pots were placed in a greenhouse under favorable growth conditions for a period of about two to three weeks, allowing the plants to reach a growth stage of 2 to 4 leaves. The herbicides in the form of liquid (for example emulsion concentrates) or dry (for example water-dispersible powders) formulations were mixed with a standard additive (based on rapeseed oil methyl ester), diluted with deionized water to the required concentrations and applied to the green parts of the plants and the uncovered part of the soil surface with a spray bar using a water application rate of 300 liters per hectare. In the experiment shown below, safener and the herbicide foramsulfuron were in each case used as 20 percent strength water-dispersible powder (results see table 1.2.1). The pots were placed in a greenhouse under favorable growth conditions. Visual scoring of the herbicidal action was carried out four weeks after the herbicide application. Evaluation was carried out on a percentage basis by comparison with untreated control plants (0%=no noticeable effect compared with the untreated plant, 100%=treated plant dies).

Amaranthus retroflexus = assay: Post-emergence application of herbicide and safener by the tank mix method, herbicidal action on weed; settings: four weeks
Description: as §2

Setaria viridis [4] = assay: as above; settings: four weeks
Description: as §2

[5] = tested on: Glycine max (soybean), cv. 'Lambert'; assay: Pre-emergence application of herbicide after seed dressing with safener, crop damage; settings: for Safener action as % damage reduction in crop plants: GLXMA; for % damage in GLXMA: four weeks
Method: (§3) The number of crop plant seeds required for each application rate of safener was calculated. Sufficient seeds were weighed out into glass bottles having a screw-on lid. The volume of the glass bottles was approximately twice that of the seeds weighed out. The safeners were formulated as 20 percent strength water-dispersible powders. These formulations were weighed out to give the required application rates (g of a.i./kg of seed). The samples were added to the seed in the glass containers, and sufficient water to form a suitable seed dressing was then added. The glass bottles were closed and then mounted in an overhead shaker (which turns the bottles at moderate speed for a period of up to one hour) so that the seeds were uniformly covered with the seed dressing. The bottles were opened and the seed was ready for use in pre-emergence or post-emergence experiments, as described below. The seeds which had been treated with safener and untreated seeds as controls were sown in sandy loam soil in round plastic pots of a diameter of 13 cm and covered with a layer of sandy loam of a thickness of about 1 cm. The herbicides in the form of liquid (for example emulsion concentrates) or dry (for example water-dispersible powders) formulations were diluted with deionized water to the required concentrations and applied to the surface of the soil with a spray bar using a water application rate of 300 liters per hectare. In the two experiments shown below (results see tables 2.2.1 and 2.2.2), the herbicide isoxaflutole was used as an aqueous suspension concentrate. The pots were placed in a greenhouse under favorable growth conditions. Visual scoring of the herbicidal action was carried out four weeks after the herbicide application. Evaluation was carried out on a percentage basis by comparison with untreated control plants (0%=no noticeable effect compared with the untreated plant, […]).

[6] = tested on: Zea mays (corn), cv. 'Lorenzo'; assay: as above; settings: for Safener action as % damage reduction in crop plants: ZEAMA; for % damage in ZEAMA: four weeks
Method: as §3

[7] = tested on: Zea mays (corn), cv. 'Lorenzo'; assay: Post-emergence application of herbicide after seed dressing with safener, crop damage; settings: for Safener action as % damage reduction in crop plants: ZEAMA; for % damage in ZEAMA: four weeks
Method: The number of crop plant seeds required for each application rate of safener was calculated. Sufficient seeds were weighed out into glass bottles having a screw-on lid. The volume of the glass bottles was approximately twice that of the seeds weighed out. The safeners were formulated as 20 percent strength water-dispersible powders. These formulations were weighed out to give the required application rates (g of a.i./kg of seed). The samples were added to the seed in the glass containers, and sufficient water to form a suitable seed dressing was then added. The glass bottles were closed and then mounted in an overhead shaker (which turns the bottles at moderate speed for a period of up to one hour) so that the seeds were uniformly covered with the seed dressing. The bottles were opened and the seed was ready for use in pre-emergence or post-emergence experiments, as described below. The seeds treated with safener and untreated seeds were sown in sandy loam soil in round plastic pots of a diameter of 13 cm and covered with a layer of sandy loam of a thickness of about 1 cm. The pots were placed in a greenhouse under favorable growth conditions for a period of about two to three weeks, allowing the plants to reach a growth stage of 2 to 4 leaves. The herbicides in the form of liquid (for example emulsion concentrates) or dry (for example water-dispersible powders) formulations were mixed with a standard additive (based on rapeseed oil methyl ester), diluted with deionized water to the required concentrations and applied to the green parts of the plants and the uncovered part of the soil surface with a spray bar using a water application rate of 300 liters per hectare. In the experiment shown below, the herbicide foramsulfuron was used as 20 percent strength water-dispersible powder (results see table 2.3.1). The pots were placed in a greenhouse under favorable growth conditions. Visual scoring of the herbicidal action was carried out four weeks after the herbicide application. Evaluation was carried out on a percentage base by comparison with untreated control plants (0%=no noticeable effect compared with the untreated plant, 100%=treated plant dies).

[8] = safener 250 g a.i./ha + herbicide H1 (isoxaflutole) 100 g a.i./ha, pre-emergence tank mix, visual scoring four weeks after application
[9] = safener 250 g a.i./ha + herbicide H1 100 g a.i./ha, pre-emergence tank mix
[10] = safener 250 g a.i./ha + herbicide H2 (foramsulfuron) 40 g a.i./ha, post-emergence tank mix
[11] = safener 250 g a.i./ha + herbicide H2 40 g a.i./ha, post-emergence tank mix
[12] = seed dressing with safener 1 g a.i./kg of seed, herbicide H1 100 g a.i./ha pre-emergence
[13] = seed dressing with safener 1 g a.i./kg of seed, then herbicide H1 100 g a.i./ha pre-emergence
[14] = seed dressing with safener 1 g a.i./kg of seed, herbicide H2 40 g a.i./ha post-emergence
[15] = seed dressing with safener 1 g a.i./kg of seed, then herbicide H2 40 g a.i./ha post-emergence
[16] = herbicide H1 100 g a.i./ha alone, no safener, pre-emergence
[17] = herbicide H1 100 g a.i./ha pre-emergence, untreated seeds (no safener)
[18] = herbicide H2 40 g a.i./ha alone, no safener, post-emergence

SMILES | Safener action as % damage reduction in crop plants ([1]; pre-emergence tank mix) [%] | % damage in ZEAMA [1, 8] [%] | Herbicidal action in CHEAL (in %) (Chenopodium album; [9]) [%] | Herbicidal action in SETVI (in %) (Setaria viridis [2]; [9]) [%] | Safener action as % damage reduction in crop plants ([3]; post-emergence tank mix) [%] | % damage in ZEAMA [3, 10] [%] | Herbicidal action as % damage in AMARE (Amaranthus retroflexus; [11]) [%] | Herbicidal action as % damage in SETVI (Setaria viridis [4]; [11]) [%] | Safener action as % damage reduction in crop plants [5, 12] [%] | % damage in GLXMA [5, 13] [%] | Safener action as % damage reduction in crop plants [6, 12] [%] | % damage in ZEAMA [6, 13] [%] | Safener action as % damage reduction in crop plants [7, 14] [%] | % damage in ZEAMA [7, 15] [%] | also measured
O=C(O)c1ccc(F)cc1O [Comp. 253, 4-fluorosalicylic acid] | 83 | 4 | 90 | 93 | 82 | 7 | 91 | 93 | 63 | 32 | 69 | 9 | 78 | 8 | –
O=C(O)c1ccc(O)cc1O [Comp. 588, 4-hydroxysalicylic acid] | 61 | 9 | 92 | 97 | 74 | 10 | 95 | 95 | 69 | 27 | 59 | 12 | 73 | 10 | –
CS(=O)(=O)c1cc(C(F)(F)F)ccc1C(=O)c1cnoc1C1CC1 [Herbicide H1, isoxaflutole, reference compound] | – | – | – | – | – | – | – | – | – | – | – | – | – | – | % damage in ZEAMA ([1]; herbicide H1 100 g a.i./ha alone, no safener, pre-emergence, four weeks): 23%; Herbicidal action in CHEAL (in %) (Chenopodium album; [16]): 90%; Herbicidal action in SETVI (in %) (Setaria viridis [2]; [16]): 92%; % damage in GLXMA [5, 17]: 87%; % damage in ZEAMA [6, 17]: 29%
COc1cc(OC)nc(NC(=O)NS(=O)(=O)c2cc(NC=O)ccc2C(=O)N(C)C)n1 [Herbicide H2, foramsulfuron, reference compound] | – | – | – | – | – | – | – | – | – | – | – | – | – | – | % damage in ZEAMA [3, 18]: 39%; Herbicidal action as % damage in AMARE (Amaranthus retroflexus; [18]): 91%; Herbicidal action as % damage in SETVI (Setaria viridis [4]; [18]): 93%; % damage in ZEAMA ([7]; herbicide H2 40 g a.i./ha post-emergence, untreated seeds (no safener)): 37%
